Assay results published in patent publication EP4660190A1, “PHARMACEUTICALLY ACCEPTABLE SALT OF COMPOUND AND PREPARATION METHOD THEREFOR” (Jiangsu Chia Tai Fenghai Pharmaceutical Co., Ltd., priority 2023, dated 2024).
Like-named read-outs stand apart in the source and are kept apart here. Marks after values point to notes of the source that are not given here.

Key:
SOD1 G93A ALS mice = test: SOD1-G93A ALS mice, survival; assay type: in vivo; conditions: 40 mg/kg dose group
[1] = test system: TDP-43-A315T transgenic mice of ALS model; test: TDP-43-A315T ALS mice, muscle tone test; assay type: in vivo; conditions: Mean±SEM
[2] = test system: TDP-43-A315T transgenic mice of ALS model; test: TDP-43-A315T ALS mice, rotarod test; assay type: in vivo; conditions: Mean±SEM
[3] = test system: MPTP-induced Parkinson's disease model mice; test: MPTP-induced mouse Parkinson's disease model, pole test; assay type: in vivo, C57 mice; conditions: mean ± SD
[4] = test system: MPTP-induced Parkinson's disease model mice; test: MPTP-induced mouse Parkinson's disease model, striatal dopamine (DOPA) detection; assay type: in vivo, C57 mice; conditions: striatum, four weeks, mean ± SD
[5] = test system: MPTP-induced Parkinson's disease model mice; test: MPTP-induced mouse Parkinson's disease model, TH-positive fiber content in the striatum; assay type: in vivo, C57 mice; conditions: four weeks, mean ± SD
[6] = test system: MPTP-induced Parkinson's disease model mice; test: MPTP-induced mouse Parkinson's disease model, TH-positive cell counts in the substantia nigra pars compacta; assay type: in vivo, C57 mice; conditions: four weeks, mean ± SD
[7] = test system: rat spinal cord injury model; test: Rat spinal cord injury model, Neurofilament 200 (NF200) expression; assay type: in vivo, Male SD rats; conditions: mean±SD, n=6
[8] = for Total impurities: Table 4
[9] = test system: rat spinal cord injury model; test: Rat spinal cord injury model, pathological changes
[10] = Pharmacokinetic test in rats; assay type: in vivo, Male SD rats; conditions: rat; p.o. 10 mg/kg vs i.v. 1 mg/kg
Experimental: Male SD rats (weighing 180-260g) were administered with the compound of formula (I) intravenously at a dose of 1.0 mg/kg via tail vein injection, and orally at a dose of 10.0 mg/kg. Each group consisted of 3 animals. The solvent for administration was a solution of 5% DMSO + 5% polyethoxylated castor oil (Cremophor EL) in normal saline. The rats were fasted for about 12 h before administration and were given ad libitum access to food 4 h after administration, and water was available all the time. Blood was collected from the orbit at about 0.2 mL before administration and 5 min, 15 min, 30 min, 1 h, 2 h, 4 h, 6 h, 8 h, and 24 h after administration. The samples were placed in EDTA-K2 anticoagulant EP tubes in an ice bath, and subjected to low-speed centrifugation at 4°C and 3500 rpm for 10 min to isolate plasma, which was then stored at -20°C before analysis. The plasma concentration of the compound of formula (I) was determined using liquid chromatography-tandem mass spectrometry (LC-MS/MS). Pharmacokinetic parameters were calculated from the analysis results of the samples using WinNonlin software.

[11] = rat, value in literature, cited from earlier work
[12] = Pharmacokinetics of butylphthalide in rats (literature values); conditions: rat; calculated based on the literature value of AUC0-inf (p.o. 60 mg/kg vs i.v. 10 mg/kg)
[13] = high dose 20 mg/kg daily, listed as Tromethamine salt from Example 10, 20 mg/kg
[14] = high dose 20 mg/kg daily, listed as tromethamine salt from Example 10, 20 mg/kg
[15] = low dose 5 mg/kg daily, listed as Tromethamine salt from Example 10, 5 mg/kg
[16] = low dose 5 mg/kg daily, listed as tromethamine salt from Example 10, 5 mg/kg

Molecule: (Z)-3-(1-hydroxybutenyl)benzofuran-2-one tromethamine salt [Example 10]
- extension of survival (SOD1 G93A ALS mice): approximately 15 days
- Muscle Tone ([1]; female mice, 20mg/kg, animal age 6 weeks): 165.4 ± 7.815 g
- Muscle Tone ([1]; female mice, 20mg/kg, animal age 8 weeks): 190.2 ± 14.13 g
- Muscle Tone ([1]; female mice, 20mg/kg, animal age 10 weeks): 153.7 ± 8.355 g
- Muscle Tone ([1]; female mice, 20mg/kg, animal age 12 weeks): 159.4 ± 13.21 g
- Muscle Tone ([1]; female mice, 20mg/kg, animal age 13 weeks): 149.8 ± 4.815 g
- Muscle Tone ([1]; female mice, 20mg/kg, animal age 14 weeks): 150.9 ± 6.940 g
- Muscle Tone ([1]; female mice, 20mg/kg, animal age 16 weeks): 159.5 ± 7.125 g
- Muscle Tone ([1]; female mice, 40mg/kg p.o., animal age 6 weeks): 155.8 ± 3.677 g
- Muscle Tone ([1]; female mice, 40mg/kg p.o., animal age 8 weeks): 190.6 ± 10.24 g
- Muscle Tone ([1]; female mice, 40mg/kg p.o., animal age 10 weeks): 147.8 ± 7.822 g
- Muscle Tone ([1]; female mice, 40mg/kg p.o., animal age 12 weeks): 154.3 ± 6.584 g
- Muscle Tone ([1]; female mice, 40mg/kg p.o., animal age 13 weeks): 148.1 ± 4.851 g
- Muscle Tone ([1]; female mice, 40mg/kg p.o., animal age 14 weeks): 161.6 ± 2.816 g
- Muscle Tone ([1]; female mice, 40mg/kg p.o., animal age 16 weeks): 155.2 ± 3.339 g
- Muscle Tone ([1]; male mice, 40mg/kg p.o., animal age 6 weeks): 155.4 ± 6.495 g
- Muscle Tone ([1]; male mice, 40mg/kg p.o., animal age 8 weeks): 170.9 ± 6.777 g
- Muscle Tone ([1]; male mice, 40mg/kg p.o., animal age 10 weeks): 155.6 ± 8.359 g
- Muscle Tone ([1]; male mice, 40mg/kg p.o., animal age 12 weeks): 123.1 ± 18.21 g
- Muscle Tone ([1]; male mice, 40mg/kg p.o., animal age 13 weeks): 120.8 ± 12.91 g
- Muscle Tone ([1]; male mice, 40mg/kg p.o., animal age 14 weeks): 89.72 ± 19.04 g
- Muscle Tone ([1]; male mice, 60mg/kg p.o., animal age 6 weeks): 175.7 ± 7.244 g
- Muscle Tone ([1]; male mice, 60mg/kg p.o., animal age 8 weeks): 177.0 ± 5.555 g
- Muscle Tone ([1]; male mice, 60mg/kg p.o., animal age 10 weeks): 155.93 ± 4.345 g
- Muscle Tone ([1]; male mice, 60mg/kg p.o., animal age 12 weeks): 136.8 ± 16.00 g
- Muscle Tone ([1]; male mice, 60mg/kg p.o., animal age 13 weeks): 149.8 ± 3.710 g
- Muscle Tone ([1]; male mice, 60mg/kg p.o., animal age 14 weeks): 149.8 ± 2.045 g
- Rotarod performance ([2]; female mice, 20mg/kg, Dosing Schedule (weeks) 2): 287.0 ± 8.449 s
- Rotarod performance ([2]; female mice, 20mg/kg, Dosing Schedule (weeks) 4): 288.6 ± 7.796 s
- Rotarod performance ([2]; female mice, 20mg/kg, Dosing Schedule (weeks) 6): 285.4 ± 6.626 s
- Rotarod performance ([2]; female mice, 20mg/kg, Dosing Schedule (weeks) 8): 266.3 ± 14.55 s
- Rotarod performance ([2]; female mice, 20mg/kg, Dosing Schedule (weeks) 10): 254.2 ± 12.62 s
- Rotarod performance ([2]; female mice, 20mg/kg, Dosing Schedule (weeks) 12): 266.2 ± 14.94 s
- Rotarod performance ([2]; female mice, 20mg/kg, Dosing Schedule (weeks) 14): 272.3 ± 10.62 s
- Rotarod performance ([2]; female mice, 20mg/kg, Dosing Schedule (weeks) 16): 267.8 ± 16.51 s
- Rotarod performance ([2]; female mice, 40mg/kg p.o., Dosing Schedule (weeks) 2): 273.6 ± 12.14 s
- Rotarod performance ([2]; female mice, 40mg/kg p.o., Dosing Schedule (weeks) 4): 271.4 ± 10.22 s
- Rotarod performance ([2]; female mice, 40mg/kg p.o., Dosing Schedule (weeks) 6): 269.5 ± 8.270 s
- Rotarod performance ([2]; female mice, 40mg/kg p.o., Dosing Schedule (weeks) 8): 275.6 ± 9.651 s
- Rotarod performance ([2]; female mice, 40mg/kg p.o., Dosing Schedule (weeks) 10): 260.6 ± 12.34 s
- Rotarod performance ([2]; female mice, 40mg/kg p.o., Dosing Schedule (weeks) 12): 270.6 ± 9.446 s
- Rotarod performance ([2]; female mice, 40mg/kg p.o., Dosing Schedule (weeks) 14): 256.3 ± 10.00 s
- Rotarod performance ([2]; female mice, 40mg/kg p.o., Dosing Schedule (weeks) 16): 236.5 ± 15.50 s
- Rotarod performance ([2]; male mice, 40mg/kg p.o., Dosing Schedule (weeks) 6): 272.9 ± 7.148 s
- Rotarod performance ([2]; male mice, 40mg/kg p.o., Dosing Schedule (weeks) 8): 267.5 ± 9.357 s
- Rotarod performance ([2]; male mice, 40mg/kg p.o., Dosing Schedule (weeks) 10): 275.8 ± 10.38 s
- Rotarod performance ([2]; male mice, 40mg/kg p.o., Dosing Schedule (weeks) 11): 224.3 ± 26.08 s
- Rotarod performance ([2]; male mice, 40mg/kg p.o., Dosing Schedule (weeks) 12): 182.1 ± 40.34 s
- Rotarod performance ([2]; male mice, 40mg/kg p.o., Dosing Schedule (weeks) 13): 154.2 ± 30.27 s
- Rotarod performance ([2]; male mice, 60mg/kg p.o., Dosing Schedule (weeks) 6): 295.6 ± 3.322 s
- Rotarod performance ([2]; male mice, 60mg/kg p.o., Dosing Schedule (weeks) 8): 275.1 ± 11.91 s
- Rotarod performance ([2]; male mice, 60mg/kg p.o., Dosing Schedule (weeks) 10): 267.3 ± 10.94 s
- Rotarod performance ([2]; male mice, 60mg/kg p.o., Dosing Schedule (weeks) 11): 263.0 ± 12.54 s
- Rotarod performance ([2]; male mice, 60mg/kg p.o., Dosing Schedule (weeks) 12): 266.3 ± 17.99 s
- Rotarod performance ([2]; male mice, 60mg/kg p.o., Dosing Schedule (weeks) 13): 209.0 ± 31.68 s
- Pole test results ([3]; high dose 20 mg/kg daily, four weeks, Study Endpoint, listed as Tromethamine salt from Example 10, 20 mg/kg): 8.83 ± 1.77 s
- Pole test results ([3]; high dose 20 mg/kg daily, four weeks, Study Endpoint, listed as tromethamine salt from Example 10, 20 mg/kg): 8.83 ± 1.77 s
- Pole test results ([3]; high dose 20 mg/kg group, Before Modeling): 9.51 ± 1.66 s
- Pole test results ([3]; low dose 5 mg/kg daily, four weeks, Study Endpoint, listed as Tromethamine salt from Example 10, 5 mg/kg): 9.67 ± 1.48 s
- Pole test results ([3]; low dose 5 mg/kg daily, four weeks, Study Endpoint, listed as tromethamine salt from Example 10, 5 mg/kg): 9.67 ± 1.48 s
- Pole test results ([3]; low dose 5 mg/kg group, Before Modeling): 9.40 ± 1.51 s
- DOPA [4, 13]: 2731.07 ± 868.18 ng/g
- DOPA [4, 14]: 2731.07 ± 868.18 ng/g
- DOPA [4, 15]: 837.82±372.19^& ng/g
- DOPA [4, 16]: 837.82 ± 372.19 ng/g
- TH-Positive Fiber Content [5, 13]: 709627.56±100462.19^&#
- TH-Positive Fiber Content [5, 14]: 709,627.56±100,462.19
- TH-Positive Fiber Content [5, 15]: 526554.39±169680.75^&
- TH-Positive Fiber Content [5, 16]: 526,554.39±169,680.75
- TH-Positive Cell counts [6, 13]: 42.42±4.36^&#
- TH-Positive Cell counts [6, 14]: 42.42±4.36
- TH-Positive Cell counts [6, 15]: 31.22±5.97^&
- TH-Positive Cell counts [6, 16]: 31.22±5.97
- Positive Count (number per field of view) ([7]; high dose 20 mg/kg): 30.3±7.4 number per field of view
- Positive Count (number per field of view) ([7]; low dose 5 mg/kg): 22.5± 7.5 number per field of view
- Total impurities ([8]; 0 h): 0.08
- Total impurities ([8]; High Humidity 75%, 10 d): 0.04
- Total impurities ([8]; High Humidity 92.5%, 10 d): 0.04
- Total impurities ([8]; High temperature 60°C, 10 d): 0.03
- Total impurities ([8]; Light (packaged), 10 d): 0.04
- Total impurities ([8]; Light (unwrapped), 10 d): 0.03
- chemical stability ([8]; high temperature (60°C), light (unwrapped, packaged), high humidity (92.5%, 75%)): good chemical stability
- cases showing a reduction in lesions ([9]; 20 mg/kg dose group, spinal cord histopathology): 4 out of 6
- pathological changes versus the model control group ([9]; low-dose group (5 mg/kg)): No significant differences

Molecule: CCC/C(O)=C1/C(=O)Oc2ccccc21 [Compound (I)]
- F [10]: 144.2%

Molecule: CCCCC1OC(=O)c2ccccc21 (stereo not drawn) [Butylphthalide, butylphthalide, reference compound]
- AUC0-inf ([11]; i.v. 10 mg/kg): 8620.0 ng·h/mL
- AUC0-t ([11]; i.v. 10 mg/kg): 7230.0 ng·h/mL
- MRTinf ([11]; i.v. 10 mg/kg): 2.4 h
- T1/2 ([11]; i.v. 10 mg/kg): 2.2 h
- AUC0-inf ([11]; p.o. 60 mg/kg): 8560.0 ng·h/mL
- AUC0-t ([11]; p.o. 60 mg/kg): 7110.0 ng·h/mL
- Cmax ([11]; p.o. 60 mg/kg): 2900.0 ng/mL
- MRTinf ([11]; p.o. 60 mg/kg): 3.8 h
- T1/2 ([11]; p.o. 60 mg/kg): 2.83 h
- Tmax ([11]; p.o. 60 mg/kg): 0.7 h
- F [12]: 16.6* %
